Assay results: patent publication US10899747B2, “Biaryl piperidine amide compounds and methods of use thereof” (Athenex, Inc., priority 2017, dated 2021)

test system: IL-2; assay: PHA-IL2 (cell activation and cytokine analysis); type: cell-based; conditions: 50% inhibition concentration class
Procedure: Cells to be tested may include, but are not limited to, a) Jurkat (a transformed human T cell leukemia), b) whole blood isolated from human or rodent sources, c) peripheral blood mononuclear cells (PBMC) freshly isolated from human or rodent whole blood, or d) purified fractions of PBMC (e.g., CD4 T cells). Cells are plated in 96-well plates at a final density of 1.0-2.0×10^6 cells/ml in 150 ul of assay medium (RPMI+0.5% fetal calf serum). Test compounds are included at a final concentration of ≤20 uM and generally pre-incubated with cells for 30 minutes prior to stimulation. An appropriate stimulus is added, including but not limited to, a) phytohemagglutinin (PHA), b) phorbol myristate acetate (PMA) and ionomycin, or c) stimulatory antibodies to the T cell receptor (TCR) complex (e.g., anti-CD3ε) and CD28. Cell cultures are stimulated for 24-48 hours in a humidified incubator (37 degrees C./5% CO2). A fraction of the culture supernatant is than harvested from each well and assayed for the presence of appropriate cytokine using standard ELISA. Cytokines to be analyzed may include IL-2, IL-4, IL-10, IL-17, IL-22, IFNγ, and/or TNFα. If required, the number of cytokine producing cells can be determined using intracellular staining and flow cytometry. […]

SMILES	IC50 [nM]
CCOc1cccc(-c2ccccc2OCC(=O)N2CCC(CCc3ccc4c(c3)OCO4)CC2)c1 [Compound 206]	< 1000
CCOc1ccccc1-c1ccccc1OCC(=O)N1CCC(CCc2ccc3c(c2)OCO3)CC1 [Compound 207]	< 1000
O=C(COc1ccccc1-c1ccccc1)N1CCC(CCc2ccc3c(c2)OCCCO3)CC1 [Compound 208]	< 1000
CC(Oc1ccccc1-c1ccccc1)C(=O)N1CCC(CCc2ccc3c(c2)OCCCO3)CC1 (stereo not drawn) [Compound 209]	< 1000
CCCC(Oc1ccccc1-c1ccccc1)C(=O)N1CCC(CCc2ccc3c(c2)OCCCO3)CC1 (stereo not drawn) [Compound 210]	< 1000
O=C(COc1ccccc1-c1ccccc1)N1CCC(CCc2ccc3c(c2)OC(F)(F)O3)CC1 [Compound 211]	1000 to 10000
CN(C)c1ccc(-c2ccccc2OCC(=O)N2CCC(CCc3ccc4c(c3)OCO4)CC2)cc1 [Compound 213]	10000 to 50000
O=C(COc1ccccc1-c1ccccc1Oc1ccccc1)N1CCC(CCc2ccc3c(c2)OCO3)CC1 [Compound 216]	< 1000
O=C(COc1ccccc1-c1cccc(OCc2ccccc2)c1)N1CCC(CCc2ccc3c(c2)OCO3)CC1 [Compound 217]	1000 to 10000
O=C(COc1ccccc1-c1ccc(-c2ccccc2)cc1)N1CCC(CCc2ccc3c(c2)OCO3)CC1 [Compound 218]	1000 to 10000
O=C(CCc1ccccc1-c1ccccc1)N1CCC(CCc2ccc3c(c2)OCO3)CC1 [Compound 219]	10000 to 50000
O=C(CCc1ccccc1-c1ccccc1)N1CCC(CCc2cc(F)cc(F)c2)CC1 [Compound 220]	10000 to 50000
COc1cccc(CCC2CCN(C(=O)CCc3ccccc3-c3ccccc3)CC2)c1 [Compound 221]	10000 to 50000
O=C(CCc1ccccc1-c1ccc(F)cc1)N1CCC(CCc2ccc3c(c2)OCO3)CC1 [Compound 222]	1000 to 10000
O=C(CCc1ccccc1-c1ccc(F)cc1)N1CCC(CCc2cc(F)cc(F)c2)CC1 [Compound 223]	1000 to 10000
COc1cccc(CCC2CCN(C(=O)CCc3ccccc3-c3ccc(F)cc3)CC2)c1 [Compound 224]	1000 to 10000
N#Cc1ccc(-c2ccccc2CCC(=O)N2CCC(CCc3ccc4c(c3)OCO4)CC2)cc1 [Compound 225]	1000 to 10000
N#Cc1ccc(-c2ccccc2CCC(=O)N2CCC(CCc3cc(F)cc(F)c3)CC2)cc1 [Compound 226]	1000 to 10000
COc1cccc(CCC2CCN(C(=O)CCc3ccccc3-c3ccc(C#N)cc3)CC2)c1 [Compound 227]	1000 to 10000
O=C(COc1ccccc1-c1ccccc1CN1CCOCC1)N1CCC(CCc2ccc3c(c2)OCO3)CC1 [Compound 228]	1000 to 10000
Cc1cccc(-c2ccccc2)c1OC(C)C(=O)N1CCC(CCc2cc(F)cc(F)c2)CC1 (stereo not drawn) [Compound 229]	1000 to 10000
O=C(COc1ccccc1-c1ccc(F)cc1)N1CCC(CCc2ccc3c(c2)OCCCO3)CC1 [Compound 230]	< 1000
N#Cc1ccc(-c2ccccc2OCC(=O)N2CCC(CCc3ccc4c(c3)OCCCO4)CC2)cc1 [Compound 231]	< 1000
O=C(COc1ccccc1-c1ccccc1O)N1CCC(CCc2ccc3c(c2)OCCCO3)CC1 [Compound 233]	< 1000

SMILES	IC50 [nM]
COc1ccc(CCC2CCN(C(=O)C(C)Oc3c(C)cccc3-c3ccccc3)CC2)cc1 (stereo not drawn) [Compound 234]	1000 to 10000
COc1cccc(CCC2CCN(C(=O)C(C)Oc3c(C)cccc3-c3ccccc3)CC2)c1 (stereo not drawn) [Compound 235]	< 1000
O=C(COc1ccccc1-c1ccc(F)cc1F)N1CCC(CCc2ccc3c(c2)OCO3)CC1 [Compound 236]	10000 to 50000
O=C(COc1ccccc1-c1ccc(C(F)(F)F)cc1F)N1CCC(CCc2ccc3c(c2)OCO3)CC1 [Compound 237]	< 1000
COc1ccc(F)c(-c2ccccc2OCC(=O)N2CCC(CCc3ccc4c(c3)OCO4)CC2)c1 [Compound 238]	< 1000
Cc1ccc(F)c(-c2ccccc2OCC(=O)N2CCC(CCc3ccc4c(c3)OCO4)CC2)c1 [Compound 239]	< 1000
O=C(COc1ccccc1-c1ccc(Cl)cc1Cl)N1CCC(CCc2ccc3c(c2)OCO3)CC1 [Compound 240]	1000 to 10000
COc1cccc(-c2ccccc2OCC(=O)N2CCC(CCc3ccc4c(c3)OCO4)CC2)c1OC [Compound 241]	< 1000
COc1c(F)cc(F)cc1-c1ccccc1OCC(=O)N1CCC(CCc2ccc3c(c2)OCO3)CC1 [Compound 242]	1000 to 10000
CC(C)Oc1cccc(-c2ccccc2OCC(=O)N2CCC(CCc3ccc4c(c3)OCO4)CC2)c1 [Compound 243]	1000 to 10000
CCCOc1cccc(-c2ccccc2OCC(=O)N2CCC(CCc3ccc4c(c3)OCO4)CC2)c1 [Compound 244]	1000 to 10000
CC(C)COc1cccc(-c2ccccc2OCC(=O)N2CCC(CCc3ccc4c(c3)OCO4)CC2)c1 [Compound 245]	1000 to 10000
CCCCOc1cccc(-c2ccccc2OCC(=O)N2CCC(CCc3ccc4c(c3)OCO4)CC2)c1 [Compound 246]	1000 to 10000
O=C(COc1ccccc1-c1ccncc1)N1CCC(CCc2ccc3c(c2)OCO3)CC1 [Compound 247]	1000 to 10000
Cc1cc(F)ncc1-c1ccccc1OCC(=O)N1CCC(CCc2ccc3c(c2)OCO3)CC1 [Compound 248]	10000 to 50000
O=C(COc1ccccc1-c1ccc2[nH]ncc2c1)N1CCC(CCc2ccc3c(c2)OCO3)CC1 [Compound 249]	< 1000
C#Cc1ccc(-c2ccccc2OCC(=O)N2CCC(CCc3ccc4c(c3)OCO4)CC2)cc1 [Compound 250]	< 1000
N#Cc1ccc(-c2ccccc2OCC(=O)N2CCC(CCc3ccc4c(c3)OCO4)CC2)c(F)c1 [Compound 251]	< 1000
Nc1ccc(/C=C/C2CCN(C(=O)COc3ccccc3-c3ccccc3)CC2)cn1 [Compound 252]	10000 to 50000
O=C(COc1ccccc1-c1ccccc1)N1CCC(/C=C/c2ccc3c(c2)OCO3)CC1 [Compound 253]	< 1000
O=C1COc2ccc(CCC3CCN(C(=O)COc4ccccc4-c4ccccc4)CC3)cc2N1 [Compound 254]	1000 to 10000
Nc1ccc(CCC2CCN(C(=O)COc3ccccc3-c3ccccc3)CC2)cn1 [Compound 255]	1000 to 10000
CC1Oc2ccc(CCC3CCN(C(=O)COc4ccccc4-c4ccccc4)CC3)cc2OC1C (stereo not drawn) [Compound 256]	< 1000
N#Cc1ccc(-c2ccccc2OCC(=O)N2CCC(CCc3ccc4c(c3)NC(=O)CO4)CC2)cc1 [Compound 257]	1000 to 10000

SMILES	IC50 [nM]
O=C1COc2ccc(CCC3CCN(C(=O)COc4ccccc4-c4ccc(F)cc4)CC3)cc2N1 [Compound 258]	1000 to 10000
O=C1COc2ccc(CCC3CCN(C(=O)COc4ccccc4-c4ccc(Cl)nc4)CC3)cc2N1 [Compound 259]	< 1000
O=C(C1CC1c1cc2c(cc1-c1ccccc1)OCO2)N1CCC(CCc2ccc3c(c2)OCO3)CC1 (stereo not drawn) [Compound 260]	< 1000
O=C(COc1ccccc1-c1ccccc1)N1CCC(CCCc2ccccc2)CC1 [Compound 261]	1000 to 10000
Cc1cc(F)ccc1-c1ccccc1OCC(=O)N1CCC(CCc2ccc3c(c2)OCO3)CC1 [Compound 262]	1000 to 10000
CC1Oc2ccc(CCC3CCN(C(=O)COc4ccccc4-c4ccc(C#N)cc4)CC3)cc2OC1C (stereo not drawn) [Compound 263]	< 1000
CC1Oc2ccc(CCC3CCN(C(=O)COc4ccccc4-c4ccc(F)cc4)CC3)cc2OC1C (stereo not drawn) [Compound 264]	< 1000
CC1Oc2ccc(CCC3CCN(C(=O)COc4ccccc4-c4ccc(Cl)nc4)CC3)cc2OC1C (stereo not drawn) [Compound 265]	< 1000
O=C(COc1ccccc1-c1ccc(F)nc1)N1CCC(CCc2ccc3c(c2)OCCCO3)CC1 [Compound 266]	< 1000
O=C(COc1ccccc1-c1ccc2[nH]ncc2c1)N1CCC(CCc2ccc3c(c2)OCCCO3)CC1 [Compound 267]	< 1000
CC1Oc2ccc(CCC3CCN(C(=O)COc4ccccc4-c4ccc5[nH]ncc5c4)CC3)cc2OC1C (stereo not drawn) [Compound 268]	< 1000
N#Cc1ccc(-c2ccccc2OCC(=O)N2CCC(CCc3ccccc3)CC2)cc1 [Compound 269]	< 1000
O=C(COc1ccccc1-c1ccc(F)cc1)N1CCC(CCc2ccccc2)CC1 [Compound 270]	1000 to 10000
O=C(COc1ccccc1-c1ccc(Cl)nc1)N1CCC(CCc2ccccc2)CC1 [Compound 271]	< 1000
O=C(COc1ccccc1-c1ccc2[nH]ncc2c1)N1CCC(CCc2ccccc2)CC1 [Compound 272]	< 1000
CCc1ccc(OCC(=O)N2CCC(CCc3ccc4c(c3)OCO4)CC2)c(-c2ccc(F)cc2)c1 [Compound 273]	1000 to 10000
CCc1ccc(OCC(=O)N2CCC(CCc3ccc4c(c3)OCO4)CC2)c(-c2ccc(C#N)cc2)c1 [Compound 274]	1000 to 10000
CCc1ccc(OCC(=O)N2CCC(CCc3ccc4c(c3)OCO4)CC2)c(-c2ccc(Cl)nc2)c1 [Compound 275]	1000 to 10000
CCc1ccc(OCC(=O)N2CCC(CCc3ccc4c(c3)OCO4)CC2)c(-c2ccccc2)c1 [Compound 276]	< 1000
CCc1ccc(OCC(=O)N2CCC(CCc3ccc4c(c3)OCO4)CC2)c(-c2ccc3[nH]ncc3c2)c1 [Compound 277]	< 1000
CC1Oc2ccc(CCC3CCN(C(=O)COc4ccccc4-c4ccccc4O)CC3)cc2OC1C (stereo not drawn) [Compound 278]	< 1000
N#Cc1ccc(-c2ccccc2OCC(=O)N2CCC(CCc3ccc(O)cc3)CC2)cc1 [Compound 279]	< 1000
O=C(COc1ccccc1-c1ccc(F)cc1)N1CCC(CCc2ccc(O)cc2)CC1 [Compound 280]	< 1000
O=C(COc1ccccc1-c1ccc2[nH]ncc2c1)N1CCC(CCc2ccc(O)cc2)CC1 [Compound 281]	< 1000
